Several values for one entry are separate records, joined by “and”; a condition that tells them apart may be missing. Equal entries are not always repeated. Structures can show the parent of a compound that is named as a salt.

Assay type in all cases: cell-based
Assay [1] concerns HepG2 cells. Put plainly: Measurement of triglyceride synthesis inhibitory ability. The conditions noted are these: HepG2 cells; for Triglyceride (100 μM) aver.: 100 μM compound; for Triglyceride (100 μM) aver. / Triglyceride (500 μM) aver.: 24 hours, content of triglyceride formed, lower value = stronger inhibition; for Triglyceride (500 μM) aver.: 500 μM compound. The procedure: (§1) 2 mM metformin was used as a comparative compound for each of the plates (control group).
HepG2 cells (ATCC: American Type Culture Collection) were cultured in 1% serum-containing media (DMEM (Gibco), FBS (Gibco)) for 24 hours, and then treated with 100 μM or 500 μM of each of the compounds prepared in Examples for 24 hours. Then, the cells were disrupted with a lysis solution (0.1 M potassium phosphate, pH 7.4, 0.05 M NaCl, 5 mM cholic acid, 0.1% Triton X-100). To the disrupted cells was added the same volume of a reaction solution (0.76 U/ml of a glycerol kinase (Asan Pharmaceutical Co., Ltd.), […] of a peroxidase (Asan Pharmaceutical Co., Ltd.), 22.2 U/ml of a glycerol oxidizing agent (Asan Pharmaceutical Co., Ltd.), and 300 μM of Amplex red as a fluorescent factor (Molecular Probe)), which was allowed to react at 37° C. for 30 minutes. After completion of the reaction, the content of triglyceride formed in the cell lysates was measured at a wavelength of 560/590 nm (ex/em) using a fluorescence microscope.
A lower measurement value means an increased triglyceride synthesis inhibitory ability.

Assay [2] has as its system C2C12 cells. The assay can be described thus: Measurement of glucose absorption ability. The conditions noted are these: for Glucose absorption (100 μM) aver.: 100 μM compound with 1 μM insulin, 24 hours, differentiated C2C12 cells, 3H-deoxy-glucose, higher value = stronger, more than 200% counts as glucose absorption ability. As for the experimental part: as §1
C2C12 cells (ATCC: American Type Culture Collection), a muscle cell model, were induced to differentiate into muscle cells in 2% bovine fetal serum-containing media (DMEM (Gibco), FBS (Gibco)) for 6 days. The C2C12 cells which differentiated into muscle cells were transferred to serum-free low glucose media (DMEM (Gibco), FBS (Gibco)), treated with 100 μM of each of the compounds, and then cultured with 1 μM of insulin for 24 hours. After cultivation, the cells were treated with 1 μCi ^3H-deoxy-glucose (Amersham Pharmacia) and 10 μM deoxy-glucose (Sigma) at 37° C. for 15 minutes. The media were removed therefrom, and the cells were washed twice with PBS (phosphate buffered saline). The washed cells were treated with 0.1N NaOH and neutralized with 1N HCl. The content of glucose absorbed into the cells was measured with a liquid scintillation counter.
A higher measurement value means a stronger ability to reduce insulin resistance.

Assay [3] deals with HepG2 cells. Put plainly: Measurement of gluconeogenesis inhibitory ability. The conditions noted are these: HepG2 cells; for Gluconeogenesis inhibition (100 μM) aver. / activity at 100 µM: 100 μM compound, 24 hours, content of glucose formed from 14C-lactate, lower value = stronger inhibition; for activity at 100 µM: Homo sapiens, HepG2, 24 h, read-out: Gluconeogenesis inhibition (100 μM) aver. The procedure: as §1
HepG2 cells (ATCC: American Type Culture Collection) were cultured in 10% serum-containing high glucose media, transferred to no serum-containing low glucose media (DMEM (Gibco), FBS (Gibco)), and then treated with 100 μM of each of the compounds for 24 hours. Then, the cells were treated with 0.5 μCi ^14C-lactate (Amersham Pharmacia) and 10 mM L-lactate (Sigma), and cultured for 4 hours. After cultivation, the media were removed therefrom, and the cells were washed with PBS, treated with 0.1N NaOH and kept at room temperature for 1 hour. Then, the cells were neutralized with 1N HCl, and the content of glucose formed in the cells was measured with a liquid scintillation counter.
A lower measurement value means an increased gluconeogenesis inhibitory ability.

The test system of assay [4] is HepG2 cells. Put plainly: Measurement of cholesterol synthesis inhibitory ability. The conditions noted are these: HepG2 cells; for Cholesterol (100 μM) aver.: 100 μM compound; for Cholesterol (100 μM) aver. / Cholesterol (500 μM) aver.: 24 hours, content of cholesterol formed, lower value = stronger inhibition; for Cholesterol (500 μM) aver.: 500 μM compound. As for the experimental part: as §1
A cholesterol synthesis inhibitory ability, which is an important function of AMPK (AMP-activated protein kinase), was measured using HepG2 cells (ATCC: American Type Culture Collection) as a hepatic cell model according to the following procedure.
The hepatic cell model HepG2 cells were cultured in 1% serum-containing media (DMEM (Gibco), FBS (Gibco)) for 24 hours, and then treated with 100 μM or 500 μM of each of the compounds prepared in Examples for 24 hours. Then, the cells were disrupted with a lysis solution (0.1 M potassium phosphate, pH 7.4, 0.05 M NaCl, 5 mM cholic acid, 0.1% Triton X-100 (Sigma)). To the disrupted cells was added the same volume of a reaction solution (2 U/ml of a cholesterol oxidizing agent, 2 U/ml of a peroxidase, 0.2 U/ml of a cholesterol esterase, and 300 μM of Amplex red as a fluorescent factor (Molecular Probe)), which was allowed to react at 37° C. for 30 minutes. After completion of the reaction, the content of cholesterol formed in the cell lysates was measured at a wavelength of 560/590 nm (ex/em) using a fluorescence microscope.
A lower measurement value means an increased cholesterol synthesis inhibitory ability.

The mark [5] stands for this setting: Metformin 2 mM, one value per plate.

With `Cl.N=C(NCc1ccc2c(c1)OCO2)NC(=N)NCC1CC1` [Example 21, N1-benzo[1,3]dioxol-5-ylmethyl-N2-cyclopropanemethyl biguanide hydrochloride], in assay [1], the “Triglyceride (100 μM) aver.” value was determined as 108.88 and the “Triglyceride (500 μM) aver.” value is given as 83.07. Also, the “Glucose absorption (100 μM) aver.” value in assay [2] worked out at 162.2%. In assay [3], the “Gluconeogenesis inhibition (100 μM) aver.” value is recorded as 88.12. In assay [4], the “Cholesterol (100 μM) aver.” value amounted to 54.92 and the “Cholesterol (500 μM) aver.” value is recorded as 15.61.

As for “N1-benzo[1,3]dioxol-5-ylmethyl-N2-t-butyl biguanide hydrochloride [Example 4]”, in assay [1], the “Triglyceride (100 μM) aver.” value is 89.8 and the “Triglyceride (500 μM) aver.” value came out at 70.1. The “Glucose absorption (100 μM) aver.” value in assay [2] was determined as 162.5%. The “Gluconeogenesis inhibition (100 μM) aver.” value in assay [3] is 100.2. In addition, in assay [4], the “Cholesterol (100 μM) aver.” value was determined as 27.6 and the “Cholesterol (500 μM) aver.” value stood at 11.0.

For the compound `CN(C)C(=N)N=C(N)N` [Metformin, metformin, reference compound], the “Triglyceride aver. (control group)” value in assay [1] (setting [5]) is 74.57 and 69.88 and 73.61 and 70.05. In addition, in assay [2] (Metformin 2 mM, C2C12 cells, one value per plate), the “Glucose absorption aver. (control group)” value is 253.20% and 336.45% and 291.63% and 170.94%. Also, the “Gluconeogenesis inhibition aver. (control group)” value in assay [3] (setting [5]) was 64.50 and 59.11 and 53.09 and 78.33. Moreover, in assay [4] (setting [5]), the “Cholesterol aver. (control group)” value was 73.31 and 74.50 and 85.91 and 70.69.

Consider “N1-benzo[1,3]dioxol-5-ylmethyl-N2-(1-adamantyl)biguanide hydrochloride (isomer) [Example 28]”, for which, in assay [1], the “Triglyceride (100 μM) aver.” value was 89.72 and the “Triglyceride (500 μM) aver.” value was found to be 28.87. The “Glucose absorption (100 μM) aver.” value in assay [2] is 2.20%. For the same compound, the “Gluconeogenesis inhibition (100 μM) aver.” value in assay [3] (100 µM) is recorded as 79.17. For the same compound, in assay [4], the “Cholesterol (100 μM) aver.” value turned out to be 73.67 and the “Cholesterol (500 μM) aver.” value came to 30.11.

In the case of `Cl.N=C(NCc1ccc2c(c1)OCO2)NC(=N)Nc1ccc(-c2ccccc2)cc1` [Example 35, N1-benzo[1,3]dioxol-5-ylmethyl-N2-(4-biphenyl)biguanide hydrochloride], in assay [1], the “Triglyceride (100 μM) aver.” value was found to be 18.86 and the “Triglyceride (500 μM) aver.” value was found to be 14.13. Moreover, in assay [2], the “Glucose absorption (100 μM) aver.” value worked out at 39.19%. In addition, the “Gluconeogenesis inhibition (100 μM) aver.” value in assay [3] came to 2.28. In assay [4], the “Cholesterol (100 μM) aver.” value stood at 9.93 and the “Cholesterol (500 μM) aver.” value is recorded as 23.56.

On to `C=CCN=C(NCc1ccc2c(c1)OCO2)NC(=N)N` [Example 18, N1-benzo[1,3]dioxol-5-ylmethyl-N2-allyl biguanide hydrochloride], for which, in assay [1], the “Triglyceride (100 μM) aver.” value turned out to be 97.00 and the “Triglyceride (500 μM) aver.” value turned out to be 46.89. Also, in assay [3], the activity at 100 µM turned out to be 95.1%. In assay [4], the “Cholesterol (100 μM) aver.” value was determined as 40.31 and the “Cholesterol (500 μM) aver.” value came to 9.71.

For the compound `Cl.N=C(N)NC(=Nc1ccc(Oc2ccccc2)cc1)NCc1ccc2c(c1)OCO2` [Example 30, N1-benzo[1,3]dioxol-5-ylmethyl-N2-(4-phenoxyphenyl)biguanide hydrochloride], in assay [1], the “Triglyceride (100 μM) aver.” value amounted to 18.22 and the “Triglyceride (500 μM) aver.” value came to 3.05. In addition, the activity at 100 µM in assay [3] is 3.04%. In assay [4], the “Cholesterol (100 μM) aver.” value was 21.94 and the “Cholesterol (500 μM) aver.” value worked out at 40.34.

With `Cl.N=C(N)NC(=NC1CCCCC1)NCc1ccc2c(c1)OCO2` [Example 2, N1-benzo[1,3]dioxol-5-ylmethyl-N2-cyclohexyl biguanide hydrochloride], in assay [1], the “Triglyceride (100 μM) aver.” value is reported as 108.9 and the “Triglyceride (500 μM) aver.” value amounted to 26.9. The activity at 100 µM in assay [3] amounted to 95.2%. In addition, in assay [4], the “Cholesterol (100 μM) aver.” value worked out at 43.7 and the “Cholesterol (500 μM) aver.” value was found to be 15.6.

With `N=C(N)NC(=Nc1cccc2ccccc12)NCc1ccc2c(c1)OCO2` [Example 3, N1-benzo[1,3]dioxol-5-ylmethyl-N2-(1-naphthyl)biguanide hydrochloride], in assay [1], the “Triglyceride (100 μM) aver.” value stood at 3.74 and the “Triglyceride (500 μM) aver.” value was −6.97. Besides, in assay [3], the activity at 100 µM was 3.27%. Further, in assay [4], the “Cholesterol (100 μM) aver.” value is reported as 8.11 and the “Cholesterol (500 μM) aver.” value worked out at 28.8.

In the case of `Cc1cccc(N=C(NCc2ccc3c(c2)OCO3)NC(=N)N)c1.Cl` [Example 42, N1-benzo[1,3]dioxol-5-ylmethyl-N2-(3-methylphenyl)biguanide hydrochloride], in assay [1], the “Triglyceride (100 μM) aver.” value is on record as 75.45 and the “Triglyceride (500 μM) aver.” value was 36.78. Also, the activity at 100 µM in assay [3] was 56.1%. Further, in assay [4], the “Cholesterol (100 μM) aver.” value amounted to 46.42 and the “Cholesterol (500 μM) aver.” value turned out to be 28.95.

For `Cl.N=C(N)NC(=NCc1ccc(F)cc1)NCc1ccc2c(c1)OCO2` [Example 43, N1-benzo[1,3]dioxol-5-ylmethyl-N2-(4-fluorobenzyl)biguanide hydrochloride], in assay [1], the “Triglyceride (100 μM) aver.” value is on record as 82.02 and the “Triglyceride (500 μM) aver.” value amounted to 63.67. Also, in assay [3], the activity at 100 µM came to 83.5%. In assay [4], the “Cholesterol (100 μM) aver.” value came out at 73.10 and the “Cholesterol (500 μM) aver.” value is given as 47.65.

Consider `CCN=C(NCc1ccc2c(c1)OCO2)NC(=N)N.Cl` [Example 1, N1-benzo[1,3]dioxol-5-ylmethyl-N2-ethyl biguanide hydrochloride], for which, in assay [1], the “Triglyceride (100 μM) aver.” value is 98.6 and the “Triglyceride (500 μM) aver.” value was determined as 49.6. Moreover, the activity at 100 µM in assay [3] was 89.8%. In assay [4], the “Cholesterol (100 μM) aver.” value was found to be 66.3 and the “Cholesterol (500 μM) aver.” value amounted to 50.8.

`COCCN=C(NCc1ccc2c(c1)OCO2)NC(=N)N.Cl` [Example 31, N1-benzo[1,3]dioxol-5-ylmethyl-N2-(2-methoxyethyl)biguanide hydrochloride]: in assay [1], the “Triglyceride (100 μM) aver.” value was determined as 74.51 and the “Triglyceride (500 μM) aver.” value is 73.00. For the same compound, in assay [3], the activity at 100 µM is 100%. In assay [4], the “Cholesterol (100 μM) aver.” value is recorded as 84.45 and the “Cholesterol (500 μM) aver.” value amounted to 69.16.

With `N=C(N)NC(=NCCc1ccccc1)NCc1ccc2c(c1)OCO2` [Example 7, N1-benzo[1,3]dioxol-5-ylmethyl-N2-(phenethyl)biguanide hydrochloride], in assay [1], the “Triglyceride (100 μM) aver.” value was found to be 77.1 and the “Triglyceride (500 μM) aver.” value was 11.8. The activity at 100 µM in assay [3] worked out at 118%. In addition, in assay [4], the “Cholesterol (100 μM) aver.” value is 23.6 and the “Cholesterol (500 μM) aver.” value is recorded as 12.9.

`Cl.N=C(N)NC(=NC1CCCCCC1)NCc1ccc2c(c1)OCO2` [Example 20, N1-benzo[1,3]dioxol-5-ylmethyl-N2-cycloheptyl biguanide hydrochloride]: in assay [1], the “Triglyceride (100 μM) aver.” value stood at 99.89 and the “Triglyceride (500 μM) aver.” value turned out to be 41.32. Besides, in assay [3], the activity at 100 µM came to 39.4%. Also, in assay [4], the “Cholesterol (100 μM) aver.” value was determined as 31.37 and the “Cholesterol (500 μM) aver.” value is on record as −14.69.

Values taken from patent US8642647B2, “N1-benzo[1,3]dioxol-5-ylmethyl-N2-substituted biguanide derivative, preparation method thereof, and pharmaceutical composition containing same” (Hanall Biopharma Co., Ltd., priority 2008, dated 2014).
